Reference: ChEMBL document CHEMBL1240371, “Randomized, double-blind study of the safety, tolerability, and efficacy of tafenoquine versus mefloquine for malaria prophylaxis in nonimmune subjects” (Antimicrob Agents Chemother, 2010)

Assays:
Conditions in all cases: in vivo, po
[1] = species on record: Homo sapiens; assay: Toxicity in […] assessed as incidence of abnormal dreams at 250 mg, perorally for 3 days and weekly 250 mg, perorally maintenance dose for 26 +/- 4 weeks; type: organism-based
[2] = species on record: Homo sapiens; assay: Toxicity in […] assessed as incidence of gastroentertis at 250 mg, perorally for 3 days and weekly 250 mg, perorally maintenance dose for 26 +/- 4 weeks; type: organism-based
[3] = species on record: Homo sapiens; assay: Toxicity in […] assessed as incidence of abnormal coordination at 250 mg, perorally for 3 days and weekly 250 mg, perorally maintenance dose for 26 +/- 4 weeks; type: organism-based
[4] = species on record: Homo sapiens; assay: Toxicity in […] assessed as incidence of somnolence at 250 mg, perorally for 3 days and weekly 250 mg, perorally maintenance dose for 26 +/- 4 weeks; type: organism-based
[5] = species on record: Homo sapiens; assay: Toxicity in […] assessed as incidence of upper respiratory tract infection at 250 mg, perorally for 3 days and weekly 250 mg, perorally maintenance dose for 26 +/- 4 weeks; type: organism-based
[6] = species on record: Homo sapiens; assay: Toxicity in […] assessed as incidence of depression at 250 mg, perorally for 3 days and weekly 250 mg, perorally maintenance dose for 26 +/- 4 weeks; type: organism-based
[7] = species on record: Homo sapiens; assay: Toxicity in […] assessed as incidence of vertigo at 250 mg, perorally for 3 days and weekly 250 mg, perorally maintenance dose for 26 +/- 4 weeks; type: organism-based
[8] = species on record: Homo sapiens; assay: Toxicity in […] assessed as incidence of vomiting at 250 mg, perorally for 3 days and weekly 250 mg, perorally maintenance dose for 26 +/- 4 weeks; type: organism-based
[9] = species on record: Homo sapiens; assay: Toxicity in […] assessed as incidence of abnormal retinal fluorescein at 250 mg, perorally for 3 days and weekly 250 mg, perorally maintenance dose for 26 +/- 4 weeks; type: organism-based
[10] = species on record: Homo sapiens; assay: Toxicity in […] assessed as incidence of abdominal pain at 250 mg, perorally for 3 days and weekly 250 mg, perorally maintenance dose for 26 +/- 4 weeks; type: organism-based, Abdomen
[11] = species on record: Homo sapiens; assay: Toxicity in […] assessed as incidence of nausea at 250 mg, perorally for 3 days and weekly 250 mg, perorally maintenance dose for 26 +/- 4 weeks; type: organism-based
[12] = species on record: Homo sapiens; assay: Toxicity in […] assessed as incidence of arthralgia at 250 mg, perorally for 3 days and weekly 250 mg, perorally maintenance dose for 26 +/- 4 weeks; type: organism-based
[13] = species on record: Homo sapiens; assay: Toxicity in […] assessed as incidence of phayngitis at 250 mg, perorally for 3 days and weekly 250 mg, perorally maintenance dose for 26 +/- 4 weeks; type: organism-based
[14] = species on record: Homo sapiens; assay: Toxicity in […] assessed as incidence of increase in serum creatinine at 250 mg, perorally for 3 days and weekly 250 mg, perorally maintenance dose for 26 +/- 4 weeks; type: organism-based
[15] = species on record: Homo sapiens; assay: Toxicity in […] assessed as incidence of viral infection at 250 mg, perorally for 3 days and weekly 250 mg, perorally maintenance dose for 26 +/- 4 weeks; type: organism-based
[16] = species on record: Homo sapiens; assay: Toxicity in […] assessed as incidence of insomnia at 250 mg, perorally for 3 days and weekly 250 mg, perorally maintenance dose for 26 +/- 4 weeks; type: organism-based
[17] = species on record: Homo sapiens; assay: Toxicity in […] assessed as incidence of pigmentation of retinal epithelium at 250 mg, perorally for 3 days and weekly 250 mg, perorally maintenance dose for 26 +/- 4 weeks; type: organism-based
[18] = species on record: Homo sapiens; assay: Toxicity in […] assessed as incidence of fungal dermatitis at 250 mg, perorally for 3 days and weekly 250 mg, perorally maintenance dose for 26 +/- 4 weeks; type: organism-based
[19] = species on record: Homo sapiens; assay: Toxicity in […] assessed as incidence of diarrhea at 250 mg, perorally for 3 days and weekly 250 mg, perorally maintenance dose for 26 +/- 4 weeks; type: organism-based
[20] = species on record: Homo sapiens; assay: Toxicity in […] assessed as incidence of dizziness at 250 mg, perorally for 3 days and weekly 250 mg, perorally maintenance dose for 26 +/- 4 weeks; type: organism-based
[21] = species on record: Homo sapiens; assay: Toxicity in […] assessed as incidence of musculoskeletal injury at 250 mg, perorally for 3 days and weekly 250 mg, perorally maintenance dose for 26 +/- 4 weeks; type: organism-based
[22] = species on record: Homo sapiens; assay: Toxicity in […] assessed as incidence of rash at 250 mg, perorally for 3 days and weekly 250 mg, perorally maintenance dose for 26 +/- 4 weeks; type: organism-based
[23] = species on record: Homo sapiens; assay: Toxicity in […] assessed as incidence of increase in bilirubin at 250 mg, perorally for 3 days and weekly 250 mg, perorally maintenance dose for 26 +/- 4 weeks; type: organism-based
[24] = species on record: Homo sapiens; assay: Toxicity in […] assessed as incidence of headache at 250 mg, perorally for 3 days and weekly 250 mg, perorally maintenance dose for 26 +/- 4 weeks; type: organism-based
[25] = species on record: Homo sapiens; assay: Toxicity in […] assessed as incidence of back pain at 250 mg, perorally for 3 days and weekly 250 mg, perorally maintenance dose for 26 +/- 4 weeks; type: organism-based
[26] = species on record: Homo sapiens; assay: Toxicity in […] assessed as incidence of abnormal coordination at 200 mg, perorally for 3 days and weekly 200 mg, perorally maintenance dose for 26 +/- 4 weeks; type: organism-based
[27] = species on record: Homo sapiens; assay: Toxicity in […] assessed as incidence of pigmentation of retinal epithelium at 200 mg, perorally for 3 days and weekly 200 mg, perorally maintenance dose for 26 +/- 4 weeks; type: organism-based
[28] = species on record: Homo sapiens; assay: Toxicity in […] assessed as incidence of paroniria at 200 mg, perorally for 3 days and weekly 200 mg, perorally maintenance dose for 26 +/- 4 weeks; type: organism-based
[29] = species on record: Homo sapiens; assay: Toxicity in […] assessed as incidence of back pain at 200 mg, perorally for 3 days and weekly 200 mg, perorally maintenance dose for 26 +/- 4 weeks; type: organism-based
[30] = species on record: Homo sapiens; assay: Toxicity in […] assessed as incidence of abdominal pain at 200 mg, perorally for 3 days and weekly 200 mg, perorally maintenance dose for 26 +/- 4 weeks; type: organism-based, Abdomen
[31] = species on record: Homo sapiens; assay: Toxicity in […] assessed as incidence of viral infection at 200 mg, perorally for 3 days and weekly 200 mg, perorally maintenance dose for 26 +/- 4 weeks; type: organism-based
[32] = species on record: Homo sapiens; assay: Toxicity in […] assessed as incidence of anxiety at 200 mg, perorally for 3 days and weekly 200 mg, perorally maintenance dose for 26 +/- 4 weeks; type: organism-based
[33] = species on record: Homo sapiens; assay: Toxicity in […] assessed as incidence of euphoria at 200 mg, perorally for 3 days and weekly 200 mg, perorally maintenance dose for 26 +/- 4 weeks; type: organism-based
[34] = species on record: Homo sapiens; assay: Toxicity in […] assessed as incidence of diarrhea at 200 mg, perorally for 3 days and weekly 200 mg, perorally maintenance dose for 26 +/- 4 weeks; type: organism-based
[35] = species on record: Homo sapiens; assay: Toxicity in […] assessed as incidence of amnesia at 200 mg, perorally for 3 days and weekly 200 mg, perorally maintenance dose for 26 +/- 4 weeks; type: organism-based
[36] = species on record: Homo sapiens; assay: Toxicity in […] assessed as incidence of headache at 200 mg, perorally for 3 days and weekly 200 mg, perorally maintenance dose for 26 +/- 4 weeks; type: organism-based
[37] = species on record: Homo sapiens; assay: Toxicity in […] assessed as incidence of abnormal dreams at 200 mg, perorally for 3 days and weekly 200 mg, perorally maintenance dose for 26 +/- 4 weeks; type: organism-based
[38] = species on record: Homo sapiens; assay: Toxicity in […] assessed as incidence of somnolence at 200 mg, perorally for 3 days and weekly 200 mg, perorally maintenance dose for 26 +/- 4 weeks; type: organism-based
[39] = species on record: Homo sapiens; assay: Toxicity in […] assessed as incidence of arthralgia at 200 mg, perorally for 3 days and weekly 200 mg, perorally maintenance dose for 26 +/- 4 weeks; type: organism-based
[40] = species on record: Homo sapiens; assay: Toxicity in […] assessed as incidence of decrease in hematocrit at 200 mg, perorally for 3 days and weekly 200 mg, perorally maintenance dose for 26 +/- 4 weeks; type: organism-based; parameters: scale not given: the % may be the effect or the level left
[41] = species on record: Homo sapiens; assay: Toxicity in […] assessed as incidence of increase in bilirubin at 200 mg, perorally for 3 days and weekly 200 mg, perorally maintenance dose for 26 +/- 4 weeks; type: organism-based
[42] = species on record: Homo sapiens; assay: Toxicity in […] assessed as incidence of nausea at 200 mg, perorally for 3 days and weekly 200 mg, perorally maintenance dose for 26 +/- 4 weeks; type: organism-based
[43] = species on record: Homo sapiens; assay: Toxicity in […] assessed as incidence of vortex keratopathy at 200 mg, perorally for 3 days and weekly 200 mg, perorally maintenance dose for 26 +/- 4 weeks; type: organism-based
[44] = species on record: Homo sapiens; assay: Toxicity in […] assessed as incidence of abnormal retinal fluorescein at 200 mg, perorally for 3 days and weekly 200 mg, perorally maintenance dose for 26 +/- 4 weeks; type: organism-based
[45] = species on record: Homo sapiens; assay: Toxicity in […] assessed as incidence of fungal dermatitis at 200 mg, perorally for 3 days and weekly 200 mg, perorally maintenance dose for 26 +/- 4 weeks; type: organism-based
[46] = species on record: Homo sapiens; assay: Toxicity in […] assessed as incidence of depression at 200 mg, perorally for 3 days and weekly 200 mg, perorally maintenance dose for 26 +/- 4 weeks; type: organism-based
[47] = species on record: Homo sapiens; assay: Toxicity in […] assessed as incidence of phayngitis at 200 mg, perorally for 3 days and weekly 200 mg, perorally maintenance dose for 26 +/- 4 weeks; type: organism-based
[48] = species on record: Homo sapiens; assay: Toxicity in […] assessed as incidence of rash at 200 mg, perorally for 3 days and weekly 200 mg, perorally maintenance dose for 26 +/- 4 weeks; type: organism-based
[49] = species on record: Homo sapiens; assay: Toxicity in […] assessed as incidence of tremor at 200 mg, perorally for 3 days and weekly 200 mg, perorally maintenance dose for 26 +/- 4 weeks; type: organism-based
[50] = species on record: Homo sapiens; assay: Toxicity in […] assessed as incidence of increase in serum creatinine at 200 mg, perorally for 3 days and weekly 200 mg, perorally maintenance dose for 26 +/- 4 weeks; type: organism-based
[51] = species on record: Homo sapiens; assay: Toxicity in […] assessed as incidence of agitation at 200 mg, perorally for 3 days and weekly 200 mg, perorally maintenance dose for 26 +/- 4 weeks; type: organism-based
[52] = species on record: Homo sapiens; assay: Toxicity in […] assessed as incidence of vertigo at 200 mg, perorally for 3 days and weekly 200 mg, perorally maintenance dose for 26 +/- 4 weeks; type: organism-based
[53] = species on record: Homo sapiens; assay: Toxicity in […] assessed as incidence of vomiting at 200 mg, perorally for 3 days and weekly 200 mg, perorally maintenance dose for 26 +/- 4 weeks; type: organism-based
[54] = species on record: Homo sapiens; assay: Toxicity in […] assessed as incidence of insomnia at 200 mg, perorally for 3 days and weekly 200 mg, perorally maintenance dose for 26 +/- 4 weeks; type: organism-based
[55] = species on record: Homo sapiens; assay: Toxicity in […] assessed as incidence of dizziness at 200 mg, perorally for 3 days and weekly 200 mg, perorally maintenance dose for 26 +/- 4 weeks; type: organism-based
[56] = species on record: Homo sapiens; assay: Toxicity in […] assessed as incidence of decrease in hematocrit at 250 mg, perorally for 3 days and weekly 250 mg, perorally maintenance dose for 26 +/- 4 weeks relative to baseline; type: organism-based; parameters: scale not given: the % may be the effect or the level left

## OC(c1cc(C(F)(F)F)nc2c(C(F)(F)F)cccc12)C1CCCCN1 (stereo unspecified) [MEFLOQUINE]
[1]
  Activity: 2%
[2]
  Activity: 51%
[3]
  Activity: 1%
[4]
  Activity: 6%
[5]
  Activity: 32%
[6]
  Activity: 1%
[7]
  Activity: 8%
[8]
  Activity: 8%
[9]
  Activity: 100%
[10]
  Activity: 13%
[11]
  Activity: 13%
[12]
  Activity: 18%
[13]
  Activity: 3%
[14]
  Activity: 10%
[15]
  Activity: 13%
[16]
  Activity: 3%
[17]
  Activity: 23.5%
[18]
  Activity: 8%
[19]
  Activity: 30%
[20]
  Activity: 2%
[21]
  Activity: 49%
[22]
  Activity: 21%
[23]
  Activity: 0.6%
[24]
  Activity: 20%
[25]
  Activity: 26%

## COc1cc(C)c2c(Oc3cccc(C(F)(F)F)c3)c(OC)cc(NC(C)CCCN)c2n1 (stereo unspecified) [TAFENOQUINE]
[26]
  Activity: 2%
[27]
  Activity: 39.1%
[28]
  Activity: 1%
[29]
  Activity: 74%
[30]
  Activity: 24%
[31]
  Activity: 39%
[32]
  Activity: 2%
[33]
  Activity: 2%
[34]
  Activity: 77%
[35]
  Activity: 1%
[36]
  Activity: 61%
[37]
  Activity: 7%
[38]
  Activity: 12%
[39]
  Activity: 55%
[40]
  Activity: 20%
[41]
  Activity: 2.6%
[42]
  Activity: 28%
[43]
  Activity: 93.2%
[44]
  Activity: 28.6%
[45]
  Activity: 44%
[46]
  Activity: 1%
[47]
  Activity: 25%
[48]
  Activity: 70%
[49]
  Activity: 2%
[50]
  Activity: 19%
[51]
  Activity: 2%
[52]
  Activity: 22%
[53]
  Activity: 21%
[54]
  Activity: 5%
[55]
  Activity: 5%
[56]
  Activity: 15%
